# Data: patent US20160089464A1, “MALODOR REDUCTION COMPOSITIONS” (The Procter & Gamble Company, priority 2014, published 2016)
# Experiment: Comment Code material properties: vapor pressure, ClogP, probability of ingredient color instability, odor detection threshold, melamine formaldehyde PMC headspace response ratio and leakage, liquid dish neat product liquid-air partition coefficient
# Assay type: physicochemical
# Details: Table 1 materials; each letter of the code is one property class (vapor pressure, ClogP, color instability, odor detection threshold, PMC headspace ratio, PMC leakage, liquid dish liquid-air partition coefficient)
row,Compound,Comment Code
1,CC(=CCC1CC=C(C)C1(C)C)CO (stereo not shown) [Material 908],CHJK
2,CC1=CC2CC(C3OCCO3)C1CC2C(C)C (stereo not shown) [Material 912],DEFHJK
3,C=C1CCCC(C)(C)C1C=C(C)C(C)=O (stereo not shown) [Material 913],BDHIJK
4,CC(C)c1cccc(C(C)CC=O)c1 (stereo not shown) [Material 914],BDHJK
5,C=CC(C)(CCC=C(C)C)OC(C)OCC (stereo not shown) [Material 916],BDEFHJK
6,CCC(=O)OC1CC2CC1C1CC=CC21 (stereo not shown) [Material 919],CEFHJK
7,CC1=C2CCC(C)C2CC(C(C)(C)O)CC1 (stereo not shown) [Material 920],DEFHJK
8,O=C(Cc1ccccc1)OCc1ccccc1 [Material 922],DHJ
9,C/C=C/c1cc(OC)c(OC)cc1OC [Material 924],BCFGJK
10,CC(C)(C=O)CC1=CCC2CC1C2(C)C (stereo not shown) [Material 925],BDFHJK
11,CC(C)=CCCC(C)C12CC=C(C)C1C2 (stereo not shown) [Material 926],DEFHJKL
12,Cc1cccc(CCO)c1 [Material 928],BCEFHIK
13,CCC=CCC=CCCO [Material 929],ACEFHK
14,CCCCCCCCCCC=CC=O [Material 930],BDFHJK
15,CC1CCC2(O)C(C)(C)C3CCC2(C)C1C3 (stereo not shown) [Material 933],DEFHIJK
16,CCCCCC(=O)Oc1ccc(C)cc1 [Material 939],DEFHJK
17,CCCCCCC1OC(=O)CC1C (stereo not shown) [Material 941],BDEFHIJKL
18,CCCCC/C=C/C=C\C(=O)OCC [Material 942],BDEFHJK
19,N#CC(=C1CCCCC1)c1ccccc1 [Material 945],DFHJK
20,C=C(C)C1CC=C(C=O)CC1 (stereo not shown) [Material 946],ACHIJK
21,C=C(C)C1CC=C(COC(C)=O)CC1 (stereo not shown) [Material 947],DFHJK
22,C=C(C)C1CC=C(CO)CC1 (stereo not shown) [Material 948],CHIJK
23,CC(C)OCCc1ccccc1 [Material 950],ACEFHJKL
24,CCCCCC=CC=CC(=O)OCC [Material 951],BDEFHJK
25,c1ccc(CCOC2CCCCC2)cc1 [Material 953],DEFHJK

row,Compound,Comment Code
1,CCC(C)C(=O)OCCc1ccccc1 (stereo not shown) [Material 954],DEFHJK
2,OCCc1ccccc1 [Material 955],BCEFGIK
3,O=C(Cc1ccccc1)OCCc1ccccc1 [Material 959],DHJ
4,O=C(Oc1ccccc1)c1ccccc1 [Material 965],DFHJK
5,O=C(OCCc1ccccc1)c1ccccc1 [Material 967],DHJ
6,CC1(C)C2CC=C(CC=O)C1C2 (stereo not shown) [Material 973],ACFHIJKL
7,C=C1C(O)CC2CC1C2(C)C (stereo not shown) [Material 974],BCEFGIJKL
8,CC(=O)CCc1ccc2c(c1)OCO2 [Material 976],CEFGJ
9,CC(C)(C)C(=O)OC1CC2CC1C1CC=CC21 (stereo not shown) [Material 978],DEFHJK
10,CC1C[C@H]2C3CCC(C3)[C@H]2CC1=O (stereo partly shown) [Material 980],CEFGJKL
11,CC(C)C1=CCC(C)(O)CC1 (stereo not shown) [Material 982],BCGIJK
12,CC1=CCC(/C=C/C(C)(C)C(C)O)C1(C)C (stereo not shown) [Material 985],DHJK
13,CC(C)=CCCC1=CCC(C)(C=O)CC1 (stereo not shown) [Material 988],DFHJK
14,CC(O)CO (stereo not shown) [Material 993],ACEFGIKL
15,Cc1ccc(OC(=O)Cc2ccccc2)cc1 [Material 998],DFHJ
16,CCC=CCC=CC=CC(=O)OCC [Material 1000],BDEFHJK
17,CC1CC(C)(C)OC(Cc2ccccc2)O1 (stereo not shown) [Material 1003],DEFHJK
18,CC1CC(C)(c2ccccc2)CO1 (stereo not shown) [Material 1006],BDEFHJK
19,CC1=CC[C@@H]2C3CC([C@@H]2C1)[C@@]1(C3)OC1C (stereo partly shown) [Material 1007],DEFHJK
20,C/C=C1/CC2CC1C1CCCOC21 (stereo not shown) [Material 1008],BCEFHJKL
21,CCC(=O)OCC(=O)OC(C)C1CCCC(C)(C)C1 (stereo not shown) [Material 1009],DFHJ
22,C=C1CCCC(C)(C)C1C(=O)OC (stereo not shown) [Material 1010],ADHIJKL
23,CC(CO)CCCc1ccccc1 (stereo not shown) [Material 1012],DEFHJK
24,CC1=CCOC(c2ccccc2)C1 (stereo not shown) [Material 1016],BCEFGJK
25,C=C1C(O)CC2(C(C)C)CC12 (stereo not shown) [Material 1020],BCEFHIJKL

row,Compound,Comment Code
1,C=CCc1ccc2c(c1)OCO2 [Material 1021],BCEFHK
2,CC1=CC(C)C2(CCCC(C)(C)C2=O)CC1 (stereo not shown) [Material 1022],DHIJK
3,CC1=CCC(CCC(C)C(C)O)C1(C)C (stereo not shown) [Material 1023],DEFHJK
4,CC/C(=C/CC1CC=C(C)C1(C)C)CO (stereo not shown) [Material 1024],DEFHJK
5,CC(=CCC1CC=C(C)C1(C)C)CO (stereo not shown) [Material 1025],CHJK
6,COC1CC2CC1C1CC(C=O)CC21 (stereo not shown) [Material 1026],CHJK
7,C=C[C@](C)(O)CC[C@@H]1[C@@]2(C)CCCC(C)(C)[C@@H]2CC[C@@]1(C)O [Material 1028],DEFHJ
8,CC1=CC[C@@H]2[C@@]3(C)CCCC(C)(C)[C@@H]3CC[C@@]2(C)O1 [Material 1029],DEFHJK
9,CC1=CCCC2(C)CCC(=C(C)C)CC12 (stereo not shown) [Material 1031],DEFHJKL
10,CC(OC(C)(C)COC(=O)C1CC1)C1CCCC(C)(C)C1 (stereo not shown) [Material 1032],DEFHJ
11,CC(C)Cc1ccc(CC(C)C=O)cc1 (stereo not shown) [Material 1033],DHJK
12,C=C1CC[C@@H]2[C@H]([C@H]3[C@H]1CC[C@]3(C)O)C2(C)C [Material 1035],DEFHJK
13,CC1CCC2C(C2(C)C)C12COC(C)(C)OC2 (stereo not shown) [Material 1036],BCEFHJK
14,C=CCCC(=O)C1=CCCC2(CCCC2)C1 [Material 1038],DGJK
15,Cc1ncsc1CCO [Material 1042],CGIKL
16,CCCCC(CC)C1OCCO1 (stereo not shown) [Material 1043],ACEFHIJKL
17,CCCCCCC/C=C\CCC=O [Material 1045],BDFHJK
18,CC1=CC2C(C(C)C)CCC(C)(O)C2CC1 (stereo not shown) [Material 1046],DEFHJK
19,CC1=CC2C(C(C)C)CCC(C)(O)C2CC1 (stereo not shown) [Material 1047],DEFHJK
20,CCCCCC1C(=O)CCC1C (stereo not shown) [Material 1053],BDFHIJKL
21,CC1=CCCC(C)(C)C12CCC(C)O2 (stereo not shown) [Material 1057],BDFHIJKL
22,CC1CCC(C(C)(C)S)C(=O)C1 (stereo not shown) [Material 1059],BDEFHIJKL
23,CC1=CCC2(C)CCCC(C)(C)C23CC13 (stereo not shown) [Material 1060],BDEFGJKL

# Same assay, conditions: cell strings several class symbols together; each letter is one property class of L1
row,Compound,Comment Code
1,C/C=C(\C)C(=O)OCCCCCC [Material 909],BDEFHJKL
2,C=CCOC(=O)COC1CCCCC1 [Material 918],CHJK
3,CCC(=O)OC1CC2CC1C1CC=CC21 (stereo not shown) [Material 919],CEFHJK
4,CC12CCCC(C)(CC1)C2=NO [Material 921],CFHIJK
5,C=C(OC(C)=O)c1ccccc1 [Material 931],ACEFHIK
6,CC1CCC2(O)C(C)(C)C3CCC2(C)C1C3 (stereo not shown) [Material 933],DEFHIJK
7,Cc1ccc(C(C)C)cc1 [Material 940],ADGIJKL
8,O=COCCc1ccccc1 [Material 956],ACEFHK
9,CC(C)C(=O)OCCc1ccccc1 [Material 958],DHJK
10,C/C=C(\C)C(=O)OCCc1ccccc1 [Material 960],DHJK
11,C=C(C)C(=O)OCCc1ccccc1 [Material 971],DHJK
12,CC(C)c1ccc(CC=O)cc1 [Material 977],BDFHK
13,CC(C)(C)C(=O)OC1CC2CC1C1CC=CC21 (stereo not shown) [Material 978],DEFHJK
14,C=C(C)C1CCC(C)(O)C1C (stereo not shown) [Material 981],BCEFGIJKL
15,COc1ccc(CC(C)=O)cc1 [Material 983],BCEFHK
16,C/C=C\C(=O)/C(C)=C(/C)C(C)C [Material 986],ADHIJKL
17,CCCc1ccc(OC)cc1 [Material 987],ADEFHKL
18,CC(C)(C)c1ccc(CC=O)cc1 [Material 994],BDHJK
19,CCC(C)(C)C1CCC(O)CC1 (stereo not shown) [Material 995],BDEFHIJK
20,CC1=CCC2CC1C2(C)C (stereo not shown) [Material 1001],ADEFGIJKL
21,CC(=O)CCc1ccc(O)cc1 [Material 1002],CEFGIK
22,C=C(C)CCC[C@H](C)CCO [Material 1004],BCHIJKL
23,CCOC(=O)OC1C(C)CCC(C)C1C (stereo not shown) [Material 1005],BDEFHJKL

row,Compound,Comment Code
1,CC1=CC[C@@H]2C3CC([C@@H]2C1)[C@@]1(C3)OC1C (stereo partly shown) [Material 1007],DEFHJK
2,CC(=O)OC(C)C1CCCC(C)(C)C1 (stereo not shown) [Material 1011],ADHIJKL
3,C=C[C@@](C)(O)CCC=C(C)C [Material 1017],BCEFGIJK
4,C=C1CCC2(C(C)C)CC12 (stereo not shown) [Material 1018],ADEFGIJKL
5,CC(C)C12CCC(C)(O)C1C2 (stereo not shown) [Material 1019],ADEFGIJKL
6,CC1=CC(C)C2(CCCC(C)(C)C2=O)CC1 (stereo not shown) [Material 1022],DHIJK
7,CC/C(=C/CC1CC=C(C)C1(C)C)CO (stereo not shown) [Material 1024],DEFHJK
8,COC1CC2CC1C1CC(C=O)CC21 (stereo not shown) [Material 1027],CHJK
9,C=C[C@](C)(O)CC[C@@H]1[C@@]2(C)CCCC(C)(C)[C@@H]2CC[C@@]1(C)O [Material 1028],DEFHJ
10,CC1=CC[C@@H]2[C@@]3(C)CCCC(C)(C)[C@@H]3CC[C@@]2(C)O1 [Material 1029],DEFHJK
11,CCCOC(=O)[C@H](C)OC(C)(C)CC [Material 1030],BDEFHJK
12,C=C1CC[C@@H]2[C@H]([C@H]3[C@H]1CC[C@]3(C)O)C2(C)C [Material 1035],DEFHJK
13,C=CCCC(=O)C1=CCCC2(CCCC2)C1 [Material 1038],DGJK
14,O=C1CCC2(CCCCC2)O1 [Material 1039],BCGIKL
15,CC/C(CC(C)CC)=N/O (stereo not shown) [Material 1040],BCEFGIJKL
16,CC(=O)OC(C)c1ccccc1 (stereo not shown) [Material 1041],ACEFHIK
17,CC(C)CCCC(C)CC=O (stereo not shown) [Material 1051],ADGIJKL
18,CC(O)CCC1C(C)CCCC1(C)C (stereo not shown) [Material 1052],BDEFHIJK
19,CCC(C)(O)CCCC(C)C (stereo not shown) [Material 1054],BDEFGIJKL
20,CCC(C)(CCCC(C)C)OC(C)=O (stereo not shown) [Material 1055],ADEFHJKL
21,CCOC(=O)[C@@H]1[C@@H](C)CCCC1(C)C [Material 1058],ADEFHIJKL
22,CC1=CCC2(C)CCCC(C)(C)C23CC13 (stereo not shown) [Material 1060],BDEFGJKL
